The source of these data is patent publication US20020028938A1, “Prostaglandin endoperoxide H synthase biosynthesis inhibitors” (priority 1997, published 2002).

For data set [1], the target named is T1, human amnionic whole cell cyclooxygenase-2 (WISH cells) (Homo sapiens, UniProt P35354).
T1 construct: endogenous in cells; host or cells: human amnionic WISH cells, induced with IL-1beta
T1 sequence (P35354 18-604): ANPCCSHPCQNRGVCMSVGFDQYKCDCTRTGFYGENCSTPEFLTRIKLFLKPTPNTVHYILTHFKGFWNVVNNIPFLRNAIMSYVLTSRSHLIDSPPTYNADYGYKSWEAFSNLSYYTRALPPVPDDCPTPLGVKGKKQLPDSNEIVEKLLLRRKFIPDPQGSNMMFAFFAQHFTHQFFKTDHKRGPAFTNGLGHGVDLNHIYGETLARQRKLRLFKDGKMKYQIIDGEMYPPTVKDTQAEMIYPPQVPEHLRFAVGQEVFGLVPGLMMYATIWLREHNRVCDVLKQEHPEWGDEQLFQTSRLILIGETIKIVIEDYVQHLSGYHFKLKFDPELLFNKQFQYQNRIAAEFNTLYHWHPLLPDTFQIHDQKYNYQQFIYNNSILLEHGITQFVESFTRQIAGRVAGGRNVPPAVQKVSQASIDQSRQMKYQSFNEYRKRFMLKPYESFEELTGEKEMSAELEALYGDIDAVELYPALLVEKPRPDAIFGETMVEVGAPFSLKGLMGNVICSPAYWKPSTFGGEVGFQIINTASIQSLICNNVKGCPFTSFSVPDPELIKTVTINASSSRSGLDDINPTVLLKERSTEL
Put plainly: IL-1β induced PGE2 production in WISH cells. In kind it is cell-based. The settings on record: for IC50: read-out: Wish IC50 (parenthetical value). How it is done: EIA reagents for prostaglandin determination were purchased from Perseptive Diagnostics, (Cambridge, Mass.). Prostaglandin E2 (PGE2) levels in lavage fluids were determined after the samples were dried under nitrogen and reconstituted with assay buffer. PGE2 levels in enzyme assays or cell culture media were measured against standards prepared in the same milieu. The immunoassays were conducted as recommended by the manufacturer. The EIA was conducted in 96 well microtiter plates (Nunc Roskilde, Denmark) and optical density was measured using a microplate reader (Vmax, Molecular Devices Corp., Menlo Park, Calif.).
Human amnionic WISH cells were grown to 80% confluence in 48 well plates. Following removal of the growth medium and two washings with Geys Balanced Salt Solutn, 5 ng IL-1β /ml (UBI, Lake Placid, N.Y.) was added to the cells with or without test compound in DMSO (0.01% v/v) in Neuman-Tytell Serumless Medium (GIBCO, Grand Island, N.Y.).

The target in data set [2] is T2, recombinant human Cox-2 (r-hu Cox-2) (Homo sapiens, UniProt P35354).
T2 construct: made in house; host or cells: baculovirus/Sf9 insect cells (microsomes)
T2 sequence (P35354 18-604): T1 sequence (P35354 18-604)
Description: Recombinant human PGHS-2 enzyme assay (RHUCX2). In kind it is biochemical. The gist of the method: (§1)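 PGE2 production measured by enzyme immunoassay with standards in the same milieu. Inhibition was computed versus control group mean and IC50 estimated by linear regression.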

For data set [3], the target named is T3, recombinant human Cox-1 (r-hu Cox1) (Homo sapiens, UniProt P23219).
T3 construct: made in house; host or cells: baculovirus/Sf9 insect cells (microsomes)
T3 sequence (P23219 24-599): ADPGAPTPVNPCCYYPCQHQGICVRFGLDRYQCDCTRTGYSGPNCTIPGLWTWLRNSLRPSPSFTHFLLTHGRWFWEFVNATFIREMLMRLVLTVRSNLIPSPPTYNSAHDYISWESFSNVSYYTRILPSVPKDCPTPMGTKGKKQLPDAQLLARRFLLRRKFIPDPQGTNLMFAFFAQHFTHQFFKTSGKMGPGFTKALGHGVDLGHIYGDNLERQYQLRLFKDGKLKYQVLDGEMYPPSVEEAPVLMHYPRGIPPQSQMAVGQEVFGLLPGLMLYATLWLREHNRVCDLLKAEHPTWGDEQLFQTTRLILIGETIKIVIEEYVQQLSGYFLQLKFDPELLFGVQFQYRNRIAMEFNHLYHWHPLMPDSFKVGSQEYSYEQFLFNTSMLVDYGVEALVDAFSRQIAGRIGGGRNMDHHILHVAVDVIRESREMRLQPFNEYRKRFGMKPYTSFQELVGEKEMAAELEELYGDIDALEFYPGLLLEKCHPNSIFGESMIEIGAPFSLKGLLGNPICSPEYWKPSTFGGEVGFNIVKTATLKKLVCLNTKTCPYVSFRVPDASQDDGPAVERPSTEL
Description: Recombinant human PGHS-1 enzyme assay (RHUCX1). It is filed as biochemical. As to conditions: 100 μM; read-out: RHUCX1 % Inh. at Dose. The gist of the method: as §1

Where [4] appears, read: read-out: RHUCX2 % Inh. at Dose.

For orientation: IC50 means the point on the concentration scale where inhibition reaches its midpoint. By melting point is commonly meant the temperature, or range, at which the solid turns liquid. `CS(=O)(=O)c1ccc(-c2cnn(CC(F)(F)F)c(=O)c2OC2CCCC2)cc1` [Example 85, 2-(2,2,2-Trifluoroethyl)-4-cyclopentyloxy-5-[4-(methylsulfonyl)phenyl]-3(2H)-pyridazinone] showed a melting point of 148 to 150 °C. In addition, the concentration for half-maximal inhibition (IC50) in data set [1] is 470 nM.

Take `COc1ccccc1-c1c(-c2ccc(S(C)(=O)=O)cc2)cnn(Cc2ccccc2)c1=O` [Example 324, 2-Benzyl-4-(2-methoxyphenyl)-5-[4-(methylsulfonyl)phenyl]-3(2H)-pyridazinone]: in data set [1], the half-maximal inhibitory concentration (IC50) was 47 nM.

As for `CS(=O)(=O)c1ccc(-c2cnn(-c3cccc(Cl)c3)c(=O)c2COc2ccc(F)cc2)cc1` [Example 207, 2-(3-Chlorophenyl)-4-(4-fluorophenoxmethyl)-5-[4-(methylsulfonyl)phenyl]-3(2H)-pyridazinone], in data set [2] (setting [4]), the inhibition at 0.1 µM is 81% and the inhibition at 1 µM is 97%. The IC50 in data set [1] worked out at 68 nM.

Consider `NS(=O)(=O)c1ccc(-c2cnn(C3C=CCCC3)c(=O)c2-c2ccc(F)cc2)cc1` (stereo not shown) [Example 126], for which the IC50 in data set [1] is 50 nM.

As for `CS(=O)(=O)c1ccc(-c2cnn(Cc3ccccc3)c(=O)c2-c2ccsc2)cc1` [Example 317, 2-Benzyl-4-(3-thienyl)-5-[4-(methylsulfonyl)phenyl]-3(2H)-pyridazinone], the IC50 in data set [1] came to 27 nM.

With `CC(C)CCOc1c(-c2ccc(S(N)(=O)=O)cc2)cnn(C(C)(C)C)c1=O` [Example 399], the entries for the “Wish % Inhib. at Dose (μM)” value in data set [1] (0.03 μM) and in data set [1] (0.1 μM) were 39 @ 0.03% and 82 @ 0.1%, respectively.

For `COc1ccc(-c2c(-c3ccc(S(C)(=O)=O)cc3)cnn(Cc3ccccc3)c2=O)cc1F` [Example 326, 2-Benzyl-4-(3-fluoro-4-methoxyphenyl)-5-[4-(methylsulfonyl)phenyl]-3(2H)-pyridazinone], the 50% inhibitory concentration (IC50) in data set [1] worked out at 50 nM.

`CCCCC(CC)COc1c(-c2ccc(S(C)(=O)=O)cc2)cnn(-c2ccc(F)cc2)c1=O` (stereo not shown) [Example 178, 2-(4-Fluorophenyl)-4-(2-ethyl-1-hexyloxy)-5-[4-(methylsulfonyl)phenyl]-3(2H)-pyridazinone] came in with a melting point of 120 to 122 °C. In data set [3], the inhibition at 100 µM was found to be 6%. Further, the inhibition at 10 µM in data set [2] (10 μM, read-out: RHUCX2 % Inh. at Dose) was 34%.

`CC(c1ccc(F)cc1)n1ncc(-c2ccc(S(C)(=O)=O)cc2)c(-c2ccc(F)cc2)c1=O` (stereo not drawn) [Example 50, 2-(α-Methyl-4-fluorobenzyl)-4-(4-fluorophenyl)-5-[4-(methylsulfonyl)phenyl]-3(2H)-pyridazinone] gave a melting point of 162 to 164 °C. For the same compound, the inhibition at 100 µM in data set [3] is 23%. In data set [2] (setting [4]), the inhibition at 0.1 µM stood at 59% and the inhibition at 1 µM came to 99%.

Turning to `CC(C)Nc1c(-c2ccc(S(C)(=O)=O)cc2)cnn(CC(F)(F)F)c1=O` [Example 86, 2-(2,2,2-Trifluoroethyl)-4-(2-propylamino)-5-[4-(methylsulfonyl)phenyl]-3(2H)-pyridazinone], in data set [1] (0.01 μM, read-out: Wish % Inhib. at Dose), the inhibition at 0.01 µM stood at 47%. For the same compound, in data set [1] (1 μM, read-out: Wish % Inhib. at Dose), the inhibition at 1 µM came to 52%.

For the compound `CS(=O)(=O)c1ccc(-c2cnn(-c3ccc(F)c(F)c3)c(=O)c2Oc2ccc(Cl)cc2)cc1` [Example 281, 2-(3,4-Difluorophenyl)-4-(4-chlorophenoxy)-5-[4-(methylsulfonyl)phenyl]-3(2H)-pyridazinone], the melting point lay in the range of 192 to 194 °C. Moreover, the inhibition at 100 µM in data set [3] is 7%. Besides, the inhibition at 0.01 µM in data set [2] (0.01 μM, read-out: RHUCX2 % Inh. at Dose) was 47%. In data set [2] (setting [4]), the inhibition at 0.1 µM stood at 52% and the inhibition at 1 µM was determined as 71%.

On to `CS(=O)(=O)c1ccc(-c2cnn(-c3ccc(F)c(F)c3)c(=O)c2C2CCCCC2)cc1` [Example 232, 2-(3,4-Difluorophenyl)-4-cyclohexyl-5-[4-(methylsulfonyl)phenyl]-3(2H)-pyrdazinone], for which the melting point fell in the range of 80 to 83 °C. The inhibition at 100 µM in data set [3] turned out to be 23%. Also, in data set [2] (read-out: RHUCX2 IC50 (parenthetical value)), the IC50 was 24 nM.
